Where two headings read alike, the source gives them in different places.

By IC50 is commonly meant the concentration that gives 50% inhibition.

The test system of series [1] is Lewis lung carcinoma (LL2). On the set-up: method as in Pan et al., 2020. Conditions: ref Pan et al., 2020, cited from earlier work.
The test system of series [2] is IDO1. To be noted: cited from earlier work.
Series [3] relates to hepatocellular carcinoma (Hepa1-6). Details: method as in Pan et al., 2020. To be noted: hepatocellular carcinoma (Hepa1-6) model; ref Pan et al., 2020; cited from earlier work.
Series [4] relates to IDO1. To be noted: read-out: IC50 in enzymatic assays, cited from earlier work.
For a further series, the system named is human IDO1. Details: method as in Rohrig et al., 2012; Rohrig et al., 2019. To be noted: ref Rohrig et al., 2012, 2019, read-out: IC50 in cellular assays, human IDO1; cited from earlier work.
For series [5] the following is noted: 2019, cited from earlier work.
The subject of another series is mouse IDO1. On the set-up: method as in Rohrig et al., 2012; Rohrig et al., 2019. To be noted: ref Rohrig et al., 2012, 2019, read-out: IC50 in cellular assays, mouse IDO1; cited from earlier work.
The subject of a further series is TDO. On the set-up: method as in Rohrig et al., 2012; Rohrig et al., 2019. Conditions: ref Rohrig et al., 2012, 2019; cited from earlier work.
Series [6] concerns IDO1. On the set-up: method as in Alexandre et al., 2018. To be noted: ref Alexandre et al., 2018; read-out: IC50 in cellular assays; cited from earlier work.
For the next series, the system named is kynurenine production. Details: method as in Wang et al., 2019. To be noted: treated cells, low concentrations; ref Wang et al., 2019; cited from earlier work.
In the next series the test system is IDO1 in MDA-MB-231 cells. Details: method as in Panda et al., 2019. To be noted: ref Panda et al., 2019; cited from earlier work.
The subject of another series is 5-HT reuptake. Details: method as in earlier work. Conditions: ref Crosignani et al., 2017; González-Gutiérrez et al., 2025; Mendez-Rojas et al., 2018; cited from earlier work.
In another series the test system is dopamine D2 receptor. Details: method as in earlier work. Conditions: ref Crosignani et al., 2017; González-Gutiérrez et al., 2025; Mendez-Rojas et al., 2018; cited from earlier work.
Series [7] addresses T1, IDO1 (Homo sapiens, UniProt P14902).
T1 construct: endogenous in cells; host or cells: HeLa cells stimulated with 100 ng/mL human IFN-γ
The series can be described thus: HeLa cell-based IDO1 inhibition assay. Conditions: HeLa cells, 100 ng/mL human IFN-γ, 18 h, kynurenine absorbance at 480 nm. How it is done: To evaluate the IDO1 inhibitory activity of the newly synthesized derivatives, HeLa cells with high IDO1 expression were used as the experimental model. […] To perform the HeLa cell-based IDO1 inhibition assay, HeLa cells were seeded at a density of 50,000 cells per well in a 96-well microplate containing 100 μL of DMEM supplemented with 10% fetal bovine serum and 1% penicillin-streptomycin. The cells were incubated overnight at 37 °C in a humidified atmosphere with 5% CO2. The following day, 100 μL of growth medium containing diluted inhibitors and 100 ng/mL human IFN-γ was added to each well. The cells were then incubated at 37 °C in a CO2 incubator for 18 h. […] The plate was incubated at 50 °C for 30 min and then centrifuged at 2,500 rpm for 10 min to remove any sediment. Next, 100 μL of the supernatant was transferred to a separate 96-well plate and mixed with 100 μL of 2% (w/v) 4-(dimethylamino)benzaldehyde in acetic acid. After a 10-min incubation at room temperature, the absorbance of the resulting yellow color, indicative of kynurenine, was measured at 480 nm using a microplate reader.

T1 sequence (P14902 whole entry): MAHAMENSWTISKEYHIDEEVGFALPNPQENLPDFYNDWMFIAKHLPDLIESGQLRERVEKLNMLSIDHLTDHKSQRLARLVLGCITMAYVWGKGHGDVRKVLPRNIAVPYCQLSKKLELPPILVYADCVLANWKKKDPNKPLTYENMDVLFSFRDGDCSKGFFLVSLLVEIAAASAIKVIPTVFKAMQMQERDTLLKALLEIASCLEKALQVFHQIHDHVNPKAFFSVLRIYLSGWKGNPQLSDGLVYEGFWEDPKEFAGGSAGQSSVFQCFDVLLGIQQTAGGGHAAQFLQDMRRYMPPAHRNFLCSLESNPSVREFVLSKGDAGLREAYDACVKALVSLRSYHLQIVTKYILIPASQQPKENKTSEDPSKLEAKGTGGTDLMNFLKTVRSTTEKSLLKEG

Turning to `O=C1c2cc(F)ccc2C(=O)c2c1nnn2-c1ccc(F)c(Cl)c1` [Compound 2], in series [1] (LL2 and Hepa1-6 in vivo models), the “toxicity in vivo models” value was “minimal toxicity”. Also, the “anti-tumor activity in vivo” value in series [1] (Lewis lung carcinoma (LL2) model) and in series [3] was “significant anti-tumor activity” throughout. The IC50 with IDO1 [2] (ref Pan et al., 2020, read-out: IDO1 inhibition IC50) was 0.005 µM.

`Oc1ccc(Cl)cc1-c1c[nH]nn1` [Compound 3]: the IC50 in the series with IDO1 [4] (ref Rohrig et al., 2012, Rohrig et al., 2019) is 0.33 µM; with human IDO1, 0.08 µM; in the series on mouse IDO1 it was 0.002 µM. The cytotoxicity entry in series [5] (cellular assays, ref Rohrig et al., 2012, Rohrig et al.) is listed as “minimal cytotoxicity”. For the same compound, the “activity against TDO” value in the series on TDO is “no activity”. In the case of `Clc1ccc(Nc2c[nH]nn2)cc1` [Compound 4], the IC50 is 11.3 µM with IDO1 [4] (ref Alexandre et al., 2018) and 0.023 µM with IDO1 [6]. On to `COc1cccc2c1C(=O)C1=C(C[C@H](Cn3cc(-c4ccccc4)nn3)O[C@@H]1C)C2=O` [Compound 5], for which the cytotoxicity result in series [5] (ref Wang et al.) is on record as “minimal cytotoxicity”. The half-maximal inhibitory concentration (IC50) in the series with IDO1 [2] (ref Wang et al., 2019, read-out: potency against IDO1, IC50) is 6 µM. Also, the “reduction of kynurenine production” value with kynurenine production is reported as “over 60%”. As for `NS(=O)(=O)NCCNC(=O)c1n[nH]nc1-c1ccc(F)c(F)c1` [Compound 6], the cytotoxicity result in series [5] (ref Panda et al.) is “negligible cytotoxicity”. Besides, in the series on IDO1 in MDA-MB-231 cells, the “IDO1 inhibition in MDA-MB-231 cells” value was “strong IDO1 inhibition”. For `CC(CCN1CCN(c2cccc3c2OCC(=O)N3)CC1)c1c[nH]c2ccc(F)cc12` (stereo not drawn) [Compound 11], in the series with 5-HT reuptake, the “activity in inhibiting 5-HT reuptake” value is given as “high activity”. Also, the “dopamine D2 receptor inhibition” value in the series with dopamine D2 receptor is “potent”.

The compound `O=C1COc2ccc(NC(=O)c3cccc(-c4cn(Cc5ccc(Br)cc5)nn4)c3)cc2N1` [Compound 14a] returned an IC50 on IDO1 [7] of 11.2 µM.

With `Cc1cc(C)cc(Cn2cc(-c3cccc(C(=O)Nc4ccc5c(c4)NC(=O)CO5)c3)nn2)c1` [Compound 14b], the IC50 against IDO1 [7] was greater than 30 µM. Same read-out and setting: for `O=C1COc2ccc(NC(=O)c3cccc(-c4cn(Cc5cc(F)c(F)c(F)c5)nn4)c3)cc2N1` [Compound 14c] the value was greater than 30 µM; for `N#Cc1ccc(F)cc1Cn1cc(-c2cccc(C(=O)Nc3ccc4c(c3)NC(=O)CO4)c2)nn1` [Compound 14d], greater than 30 µM; for `O=C1COc2ccc(NC(=O)c3cccc(-c4cn(Cc5ccc(F)c(Cl)c5)nn4)c3)cc2N1` [Compound 14f], 8.02 µM. For the compound `O=C1COc2ccc(NC(=O)c3cccc(-c4cn(Cc5cccc(Cl)c5)nn4)c3)cc2N1` [Compound 14g], at IDO1 [7], inhibition was half-maximal at 10.1 µM (IC50).

Consider `O=C1COc2ccc(NC(=O)c3cccc(-c4cn(Cc5cc(Cl)ccc5F)nn4)c3)cc2N1` [Compound 14h], for which the midpoint of inhibition against IDO1 [7], the IC50, lay at 9.98 µM. For `O=C1COc2ccc(NC(=O)c3cccc(-c4cn(Cc5ccc(F)cc5)nn4)c3)cc2N1` [Compound 14i], the half-inhibitory concentration (IC50) at IDO1 [7] is greater than 30 µM. Still for that read-out and setting: the result for `O=C1COc2ccc(NC(=O)c3cccc(-c4cn(Cc5ccccc5F)nn4)c3)cc2N1` [Compound 14j] reads greater than 30 µM.

The values are drawn from paper PMC12491243, “Rational design of indoleamine 2,3-dioxygenase 1 (IDO1) inhibitors featuring 1,2,3-triazole derivatives with enhanced anti-inflammatory and analgesic efficacy” (Frontiers in Pharmacology, 2025).
